Data on four compounds can be found in patent US6914064B2, “1,4-Disubstituted piperazine derivatives useful as uro-selective α1-adrenoceptor blockers” (Ranbaxy Laboratories Limited, priority 2000, dated 2005).

pKi: −log10 of the molar value.

The target of one data set is T1, α1B adrenoceptor (Rattus norvegicus, UniProt P15823).
T1 construct: from tissue; host or cells: rat liver membranes
T1 sequence (P15823 1-515): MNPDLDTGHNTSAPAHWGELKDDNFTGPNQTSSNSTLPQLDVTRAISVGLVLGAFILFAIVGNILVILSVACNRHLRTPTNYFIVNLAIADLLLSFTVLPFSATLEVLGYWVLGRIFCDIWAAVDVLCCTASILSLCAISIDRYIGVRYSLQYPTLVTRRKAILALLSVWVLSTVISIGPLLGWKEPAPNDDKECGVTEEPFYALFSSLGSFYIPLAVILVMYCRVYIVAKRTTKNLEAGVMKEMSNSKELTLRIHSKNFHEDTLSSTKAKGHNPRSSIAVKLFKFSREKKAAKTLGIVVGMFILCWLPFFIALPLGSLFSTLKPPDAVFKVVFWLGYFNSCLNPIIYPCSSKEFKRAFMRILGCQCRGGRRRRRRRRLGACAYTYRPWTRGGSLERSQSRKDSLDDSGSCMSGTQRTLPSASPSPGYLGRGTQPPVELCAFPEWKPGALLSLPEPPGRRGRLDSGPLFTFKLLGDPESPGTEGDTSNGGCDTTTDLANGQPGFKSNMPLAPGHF
The experiment in a line: Receptor binding assay, displacement of [3H]prazosin, rat liver membranes. The conditions noted are these: [3H]prazosin displacement, rat liver membranes; read-out: α1B (Rat liver) Ki. In outline:
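Rat liver membranes (150-250 μg protein) incubated with [3H]prazosin in 50 mM Tris HCl, 5 mM EDTA, pH 7.4, 1 h at 24-25° C; nonspecific binding with 300 nM prazosin. Bound radioactivity counted after filtration; IC50 by nonlinear fit, Ki via Cheng-Prusoff.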
(In general: Displacement assays read how much labelled ligand stays bound in the presence of the test substance.)

Data set [1] addresses T2, α1B adrenoceptor (spleen) (Rattus norvegicus, UniProt P15823).
T2 construct: Isolated tissues were mounted in organ bath containing Krebs Henseleit buffer; from tissue; host or cells: isolated spleen of male wistar rats
T2 sequence (P15823 1-515): T1 sequence (P15823 1-515)
The experiment in a line: In vitro functional study, antagonism of phenylepinephrine-induced contraction of spleen. Format: biochemical. The conditions noted are these: tested compound at 0.1, 1 and 10 mM, read-out: α Adrenoceptor Subtype (pKB) α1B (converted). The source says: (§1) In order to study selectivity of action of these compounds towards different α-adrenoceptor subtypes, the ability of these compounds to antagonise α1-adrenoceptor agonist induced contractile response on aorta (α1Dprostate (α1A and spleen (α1B was studied. Aorta and spleen tissues were isolated from urethane anaesthetised (1.5 gm/kg) male wistar rats. Isolated tissues were mounted in organ bath containing Krebs Henseleit buffer of following composition (mM): NaCl 118; KCl 4.7; CaCl2 2.5; MgSO4. 7H2O 1.2; NaHCO3 25; KH2PO41.2; glucose 11.5. Buffer was maintained at 37° C. and aereated with a mixture of 95% O2 and 5% CO2. A resting tension of 2 g (aorta) or 1 g (spleen and prostate)was applied to tissues. Contractile response was monitored using a force displacement transducer and recorded on chart recorders. Tissues were allowed to equilibrate for 2 hours. At the end of equilibration period, concentration response curves to norepinephrine (aorta) and phenylepinephrine (spleen and prostate) were obtained in absence and presence of tested compound (at concentration of 0.1,1 and 10 mM). Antagonist affinity was calculated and expressed as pKB vales in Table II.

The target in another data set is T3, α1D adrenoceptor (aorta) (Rattus norvegicus, UniProt P23944).
T3 construct: Isolated tissues were mounted in organ bath containing Krebs Henseleit buffer; from tissue; host or cells: isolated aorta of male wistar rats
T3 sequence (P23944 1-561): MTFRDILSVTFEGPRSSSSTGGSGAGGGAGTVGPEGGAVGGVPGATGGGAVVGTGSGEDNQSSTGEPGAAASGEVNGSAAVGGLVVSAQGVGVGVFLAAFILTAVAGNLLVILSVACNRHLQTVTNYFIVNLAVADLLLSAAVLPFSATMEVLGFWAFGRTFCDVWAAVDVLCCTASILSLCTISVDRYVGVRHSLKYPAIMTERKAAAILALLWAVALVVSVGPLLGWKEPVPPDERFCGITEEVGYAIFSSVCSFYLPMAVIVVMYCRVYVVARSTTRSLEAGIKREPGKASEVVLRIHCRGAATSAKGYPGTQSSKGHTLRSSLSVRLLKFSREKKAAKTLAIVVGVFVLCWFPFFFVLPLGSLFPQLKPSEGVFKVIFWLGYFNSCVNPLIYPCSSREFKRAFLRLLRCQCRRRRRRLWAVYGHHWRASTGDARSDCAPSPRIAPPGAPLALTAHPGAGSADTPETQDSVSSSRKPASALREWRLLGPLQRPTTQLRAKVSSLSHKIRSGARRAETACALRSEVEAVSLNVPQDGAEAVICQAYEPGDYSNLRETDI
The experiment in a line: In vitro functional study, antagonism of norepinephrine-induced contraction of aorta. Format: biochemical. The conditions noted are these: tested compound at 0.1, 1 and 10 mM, read-out: α Adrenoceptor Subtype (pKB) α1D (converted).
From the text: as §1

Usually pKi stands for the negative decadic logarithm of the Ki, by convention in mol/L. The term melting point denotes the temperature of the solid-liquid transition. `COc1ccccc1N1CCN(CCCN2C(=O)C3CC=CCC3C2=O)CC1.Cl` (stereo not shown) [Compound 01, 2-[3-{4-(2-Methoxyphenyl)piperazin-1-yl}propyl]-3a,4,7,7a-tetrahydro-1H-isoindole-1,3(2H)-dione hydrochloride] returned a melting point of 184 to 185 °C. For the same compound, the negative-log Ki (pKi) at α1B adrenoceptor was 7.14. The Kb in data set [1] was 21.9 nM. Further, on α1D adrenoceptor (aorta), the Kb was 2.29 nM.
In the same order, the values of `CCOc1ccccc1N1CCN(CCCN2C(=O)C3CC=CCC3C2=O)CC1.Cl` (stereo not shown) [Compound 11, 2-[3-{4-(2-Ethoxyphenyl)piperazin-1-yl}propyl]-3a,4,7,7a-tetrahydro-1H-isoindole-1,3(2H)-dione hydrochloride] are 221.9 to 222.7 °C, 7.72, 5.25 nM and 1.74 nM.
For `CC(C)Oc1ccccc1N1CCN(CCCN2C(=O)C3CC=CCC3C2=O)CC1.Cl` (stereo not shown) [Compound 23, 2-[3-{4-(2-Isopropoxyphenyl)piperazin-1-yl}propyl]-3a,4,7,7a-tetrahydro-1H-isoindole-1,3(2H)-dione hydrochloride] the same measures were 223 to 224 °C, 7.55, 19.5 nM and 0.123 nM.
Take `CCCOc1ccccc1N1CCN(CCCN2C(=O)C3CC=CCC3C2=O)CC1.Cl` (stereo not shown) [Compound 24, 2-[3-{4-(2-Propoxyphenyl)piperazin-1-yl}propyl]-3a,4,7,7a-tetrahydro-1H-isoindole-1,3(2H)-dione hydrochloride]: the melting point is 193 to 194 °C. Further, the pKi at α1B adrenoceptor is 7.55. Further, the Kb in data set [1] was 14.1 nM. Moreover, at α1D adrenoceptor (aorta), the Kb is 0.537 nM.
